Test: recombinant barcode read abundance after kanamycin selection (control-corrected) (log10(CPM+1)); higher = more efficient recombination; sequences stand for … in AGTGCAGAGAAAATCGGCCAGTTTTCTCTGCCTGCAGTCCGCATGCCGT…AGATTTATGCAGCGGACTGCCTTTCTCCCAAAGTGATAAACCGGACAGTATCATGGACCGGTTTTCCCGGTAATCCGTATTTGCAAGGTTGGTTTCACT; site = the 11-nt target
In short: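 For this pooled screen, each oligo contained a promoter, a target, a barcode and the J23119-driven first 104 bases of the bridge RNA. Gibson cloning placed it into a vector supplying the remaining 73 bp and a T7-inducible recombinase, and the pool was co-electroporated into E. coli with a donor plasmid. Recombination efficiency is derived from barcode counts per million at recombinant junctions after averaging and control correction, and is expressed on a log scale as log10(CPM+1), with selection on chloramphenicol/ampicillin/kanamycin plus 0.1 mM IPTG against a chloramphenicol/ampicillin LB agar control.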
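Note: IS621 recombinase and bridge RNA in Escherichia coli cells.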

Sequence | recombinant barcode read abundance (log10)
CATATAGCTTGGGTTCTAACCTGTTGCAT (site CATATAGCTAT) | 0.693
CATATAGCTTGGGTTCTAACCTGTTGCAT (site GATCTAGCTAT) | 0.667
CATCAAGCTTGGGTTCTAACCTGTTGCCT (site CATCAAGCTAG) | 0.929
CATCAAGCTTGGGTTCTAACCTGTTGCCT (site GTATGGACTTT) | 0.0466
CATCCGACTTGGGTTCTAACCTGTTGCTC (site AGATTTCCTAT) | 0.122
CATCCGACTTGGGTTCTAACCTGTTGCTC (site CATCCGACTGA) | 0.193
CATCCGCCTTGGGTTCTAACCTGTTGCCT (site CATCCGACTAG) | 0.0105
CATCCGCCTTGGGTTCTAACCTGTTGCCT (site CATCCGCCTAG) | 1.11
CATCCGCCTTGGGTTCTAACCTGTTGCCT (site CATCCGGCTAG) | 0.0751
CATCCGCCTTGGGTTCTAACCTGTTGCCT (site CATCCGTCTAG) | 0.0465
CATCGAGCTTGGGTTCTAACCTGTTGCCG (site CAACGAGCTCG) | 0.228
CATCGAGCTTGGGTTCTAACCTGTTGCCG (site CACCGAGCTCG) | 0.43
CATCGAGCTTGGGTTCTAACCTGTTGCCG (site CAGCGAGCTCG) | 0.236
CATCGAGCTTGGGTTCTAACCTGTTGCCG (site CATCGAGCTCG) | 0.283
CATCGCTCTTGGGTTCTAACCTGTTGCTT (site CACCGTTCTAA) | 0.0858
CATCGCTCTTGGGTTCTAACCTGTTGCTT (site CATCGCTCTAA) | 0.0993
CATGCGACTTGGGTTCTAACCTGTTGCTG (site CATGCGACTCA) | 0.459
CATGCGACTTGGGTTCTAACCTGTTGCTG (site CATGCTACTGA) | 0.351
CATGCGCCTTGGGTTCTAACCTGTTGCGG (site CATGCGCCTCC) | 1.26
CATGCGCCTTGGGTTCTAACCTGTTGCGG (site CATGTGTCTCC) | 0.0282
CATGCTTCTTGGGTTCTAACCTGTTGCCT (site AGAAAAGCTTT) | 0.167
CATGCTTCTTGGGTTCTAACCTGTTGCCT (site CATGCTTCTAG) | 0.526

Sequence | recombinant barcode read abundance (log10)
CATGGGACTTGGGTTCTAACCTGTTGCAT (site CATGGGACTAT) | 2.06
CATGGGACTTGGGTTCTAACCTGTTGCAT (site GGCAAACCTCC) | 0.202
CATGTGTCTTGGGTTCTAACCTGTTGCGG (site CATGCGCCTCC) | 0.0713
CATGTGTCTTGGGTTCTAACCTGTTGCGG (site CATGTGTCTCC) | 2.69
CATTATTCTTGGGTTCTAACCTGTTGCCT (site CATAATTCTAG) | 0.04
CATTATTCTTGGGTTCTAACCTGTTGCCT (site CATCATTCTAG) | 0.0417
CATTATTCTTGGGTTCTAACCTGTTGCCT (site CATGATTCTAG) | 0.071
CATTATTCTTGGGTTCTAACCTGTTGCCT (site CATTATTCTAG) | 0.0377
CATTCCACTTGGGTTCTAACCTGTTGCCT (site CATTCCACTAG) | 0.369
CATTCCACTTGGGTTCTAACCTGTTGCCT (site TCGCGTGCTCC) | 0.0105
CATTCTGCTTGGGTTCTAACCTGTTGCCT (site CAATCTGCTAG) | 0.136
CATTCTGCTTGGGTTCTAACCTGTTGCCT (site CACTCTGCTAG) | 0.0741
CATTCTGCTTGGGTTCTAACCTGTTGCCT (site CAGTCTGCTAG) | 0.136
CATTCTGCTTGGGTTCTAACCTGTTGCCT (site CATTCTGCTAG) | 0.12
CATTGGACTTGGGTTCTAACCTGTTGCCT (site CAATGGACTAG) | 0.112
CATTGGACTTGGGTTCTAACCTGTTGCCT (site CACTGGACTAG) | 0.0737
CATTGGACTTGGGTTCTAACCTGTTGCCT (site CAGTGGACTAG) | 0.084
CATTGGACTTGGGTTCTAACCTGTTGCCT (site CATTGGACTAG) | 0.662
CATTGTCCTTGGGTTCTAACCTGTTGCGT (site CATTATCCTAC) | 0.15
CATTGTCCTTGGGTTCTAACCTGTTGCGT (site CATTGTCCTAC) | 1.38
CCAAAGGCTTGGGTTCTAACCTGTTGCCT (site CCAAAGGCTAG) | 0.656
CCAAAGGCTTGGGTTCTAACCTGTTGCCT (site CCTAATGCTAG) | 0.412

Sequence | recombinant barcode read abundance (log10)
CCAACACCTTGGGTTCTAACCTGTTGCCT (site CCAACACCTAG) | 0.465
CCAACACCTTGGGTTCTAACCTGTTGCCT (site CCAAGTCCTAG) | 0.0965
CCAAGCTCTTGGGTTCTAACCTGTTGCCT (site CCAAGCACTAG) | 0.0905
CCAAGCTCTTGGGTTCTAACCTGTTGCCT (site CCAAGCCCTAG) | 0.177
CCAAGCTCTTGGGTTCTAACCTGTTGCCT (site CCAAGCGCTAG) | 0.214
CCAAGCTCTTGGGTTCTAACCTGTTGCCT (site CCAAGCTCTAG) | 1.32
CCAAGGCCTTGGGTTCTAACCTGTTGCCT (site ACAAGGCCTAG) | 0.161
CCAAGGCCTTGGGTTCTAACCTGTTGCCT (site CCAAGGCCTAG) | 0.0291
CCAAGGCCTTGGGTTCTAACCTGTTGCCT (site GCAAGGCCTAG) | 0.28
CCAAGGCCTTGGGTTCTAACCTGTTGCCT (site TCAAGGCCTAG) | 0.0686
CCAAGTCCTTGGGTTCTAACCTGTTGCCT (site CCAACACCTAG) | 0.0147
CCAAGTCCTTGGGTTCTAACCTGTTGCCT (site CCAAGTCCTAG) | 0.892
CCAATCTCTTGGGTTCTAACCTGTTGCCT (site CCAATCTCTAG) | 0.276
CCAATCTCTTGGGTTCTAACCTGTTGCCT (site CGTATCTCTAG) | 0.0477
CCACCTTCTTGGGTTCTAACCTGTTGCCT (site AGTTGGCCTTC) | 0.161
CCACCTTCTTGGGTTCTAACCTGTTGCCT (site CCACCTTCTAG) | 0.0666
CCACGAACTTGGGTTCTAACCTGTTGCTT (site CCAAGTACTAA) | 0
CCACGAACTTGGGTTCTAACCTGTTGCTT (site CCACGAACTAA) | 0.0915
CCACGGACTTGGGTTCTAACCTGTTGCCT (site CCAAGGACTAG) | 0.143
CCACGGACTTGGGTTCTAACCTGTTGCCT (site CCACGGACTAG) | 0.651
CCACGGACTTGGGTTCTAACCTGTTGCCT (site CCAGGGACTAG) | 0.129
CCACGGACTTGGGTTCTAACCTGTTGCCT (site CCATGGACTAG) | 0.0265

Sequence | recombinant barcode read abundance (log10)
CCATACTCTTGGGTTCTAACCTGTTGCTT (site CCATACTCTAA) | 1.17
CCATACTCTTGGGTTCTAACCTGTTGCTT (site CCATGGTCTAA) | 0
CCATCCACTTGGGTTCTAACCTGTTGCCT (site CCATCCACTAG) | 0.318
CCATCCACTTGGGTTCTAACCTGTTGCCT (site TCATCCGCTAG) | 0.0523
CCATGAACTTGGGTTCTAACCTGTTGCCA (site CCATCAACTAG) | 0.131
CCATGAACTTGGGTTCTAACCTGTTGCCA (site CCATGAACTTG) | 0.0609
CCGATCCCTTGGGTTCTAACCTGTTGCCT (site CAGATCCCTAG) | 0.348
CCGATCCCTTGGGTTCTAACCTGTTGCCT (site CCGATCCCTAG) | 1.4
CCGATCCCTTGGGTTCTAACCTGTTGCCT (site CGGATCCCTAG) | 0.213
CCGATCCCTTGGGTTCTAACCTGTTGCCT (site CTGATCCCTAG) | 0.107
CCGCACACTTGGGTTCTAACCTGTTGCCT (site ACGCACACTAG) | 0.191
CCGCACACTTGGGTTCTAACCTGTTGCCT (site CCGCACACTAG) | 1.8
CCGCACACTTGGGTTCTAACCTGTTGCCT (site GCGCACACTAG) | 0.213
CCGCACACTTGGGTTCTAACCTGTTGCCT (site TCGCACACTAG) | 0.305
CCGCGAGCTTGGGTTCTAACCTGTTGCCG (site CCGCGAGCTCG) | 0.599
CCGCGAGCTTGGGTTCTAACCTGTTGCCG (site GATGTGCCTAC) | 0.137
CCGCTAGCTTGGGTTCTAACCTGTTGCCT (site ACGCTAGCTAG) | 0.0362
CCGCTAGCTTGGGTTCTAACCTGTTGCCT (site CCGCTAGCTAG) | 0.183
CCGCTAGCTTGGGTTCTAACCTGTTGCCT (site GCGCTAGCTAG) | 0.0389
CCGCTAGCTTGGGTTCTAACCTGTTGCCT (site TCGCTAGCTAG) | 0.046
